Source: patent US8410153B2, “Naphthalene isoxazoline invertebrate pest control agents” (E.I. du Pont de Nemours and Company, priority 2007, dated 2013)

Columns and labels:
Assay type in all cases: in vivo
[1] = tested on: diamondback moth (Plutella xylostella); experiment: Test A: control of diamondback moth on radish plant, foliar spray; settings: sprayed at 50 ppm, held 6 days
Outline: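 Radish plants 12–14 days old, pre-infested with about 50 neonate larvae, sprayed at 50 ppm in 10% acetone/water with 300 ppm X-77 surfactant; three replicates. After 6 days at 25° C and 70% RH, feeding damage was scored visually and mortality counted.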

[2] = tested on: western flower thrips (Frankliniella occidentalis); experiment: Test E: control of western flower thrips on Soleil bean plant, contact and/or systemic; settings: held 6 days
Outline: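 5–7-day-old Soleil bean plants were sprayed at 250 or 50 ppm in 10% acetone/90% water with 300 ppm X-77 surfactant, three replicates. After drying 1 h, 22–27 adult thrips were added per unit. Mortality and plant damage were rated after 6 days at 25 °C and 45–55% RH.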

[3] = tested on: fall armyworm (Spodoptera frugiperda); experiment: Test B: control of fall armyworm on corn (maize) plant, foliar spray; settings: sprayed at 50 ppm
Outline: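 4-5-day-old corn plants pre-infested with 10-15 1-day-old larvae on insect diet, then sprayed with compound at 50 ppm in 10% acetone/90% water with 300 ppm surfactant, three replicates. Held 6 days at 25° C, 70% RH; feeding damage assessed visually and mortality rated.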

Measured: levels of control efficacy (20% or less feeding damage or 80% or more mortality)

O=C(CNC(=O)c1ccc(C2=NOC(c3cc(Cl)cc(C(F)(F)F)c3)(C(F)(F)F)C2)c2ccccc12)NCC(F)(F)F (centres unmarked) [Compound 62]
very good to excellent: [1] | [2]; sprayed at 50 ppm | [2]; sprayed at 250 ppm | [3]

CC(C)NC(=O)CNC(=O)c1ccc(C2=NOC(c3cc(Cl)cc(C(F)(F)F)c3)(C(F)(F)F)C2)c2ccccc12 (centres unmarked) [Compound 63]
very good to excellent: [1] | [2]; sprayed at 50 ppm | [2]; sprayed at 250 ppm | [3]

CSCCNC(=O)c1ccc(C2=NOC(c3cc(Cl)cc(C(F)(F)F)c3)(C(F)(F)F)C2)c2ccccc12 (centres unmarked) [Compound 65]
very good to excellent: [1] | [2]; sprayed at 50 ppm | [2]; sprayed at 250 ppm | [3]

CS(=O)(=O)CCNC(=O)c1ccc(C2=NOC(c3cc(Cl)cc(C(F)(F)F)c3)(C(F)(F)F)C2)c2ccccc12 (centres unmarked) [Compound 66]
very good to excellent: [1] | [2]; sprayed at 50 ppm | [2]; sprayed at 250 ppm | [3]

CC(O)CNC(=O)c1ccc(C2=NOC(c3cc(C(F)(F)F)cc(C(F)(F)F)c3)(C(F)(F)F)C2)c2ccccc12 (centres unmarked) [Compound 67]
very good to excellent: [1] | [2]; sprayed at 50 ppm | [2]; sprayed at 250 ppm | [3]

C[S+]([O-])CCNC(=O)c1ccc(C2=NOC(c3cc(C(F)(F)F)cc(C(F)(F)F)c3)(C(F)(F)F)C2)c2ccccc12 (centres unmarked) [Compound 79]
very good to excellent: [1] | [2]; sprayed at 50 ppm | [2]; sprayed at 250 ppm | [3]

CC(NC(=O)c1ccc(C2=NOC(c3cc(C(F)(F)F)cc(C(F)(F)F)c3)(C(F)(F)F)C2)c2ccccc12)C(=O)NCC(F)(F)F (centres unmarked) [Compound 85]
very good to excellent: [1] | [2]; sprayed at 50 ppm | [2]; sprayed at 250 ppm | [3]

CNC(=O)C(C)NC(=O)c1ccc(C2=NOC(c3cc(C(F)(F)F)cc(C(F)(F)F)c3)(C(F)(F)F)C2)c2ccccc12 (centres unmarked) [Compound 86]
very good to excellent: [1] | [2]; sprayed at 50 ppm | [2]; sprayed at 250 ppm | [3]

CC(C)NC(=O)C(C)NC(=O)c1ccc(C2=NOC(c3cc(C(F)(F)F)cc(C(F)(F)F)c3)(C(F)(F)F)C2)c2ccccc12 (centres unmarked) [Compound 87]
very good to excellent: [1] | [2]; sprayed at 250 ppm | [3]

CCNC(=O)C(C)NC(=O)c1ccc(C2=NOC(c3cc(C(F)(F)F)cc(C(F)(F)F)c3)(C(F)(F)F)C2)c2ccccc12 (centres unmarked) [Compound 88]
very good to excellent: [1] | [2]; sprayed at 50 ppm | [2]; sprayed at 250 ppm | [3]

CC(C)CNC(=O)C(C)NC(=O)c1ccc(C2=NOC(c3cc(C(F)(F)F)cc(C(F)(F)F)c3)(C(F)(F)F)C2)c2ccccc12 (centres unmarked) [Compound 90]
very good to excellent: [1] | [2]; sprayed at 50 ppm | [3]

CCSCCNC(=O)c1ccc(C2=NOC(c3cc(C(F)(F)F)cc(C(F)(F)F)c3)(C(F)(F)F)C2)c2ccccc12 (centres unmarked) [Compound 92]
very good to excellent: [1] | [2]; sprayed at 50 ppm | [2]; sprayed at 250 ppm | [3]

CC[S+]([O-])CCNC(=O)c1ccc(C2=NOC(c3cc(C(F)(F)F)cc(C(F)(F)F)c3)(C(F)(F)F)C2)c2ccccc12 (centres unmarked) [Compound 98]
very good to excellent: [1] | [2]; sprayed at 50 ppm | [3]

CCS(=O)(=O)CCNC(=O)c1ccc(C2=NOC(c3cc(C(F)(F)F)cc(C(F)(F)F)c3)(C(F)(F)F)C2)c2ccccc12 (centres unmarked) [Compound 99]
very good to excellent: [1] | [2]; sprayed at 50 ppm | [3]

CCNC(=O)CNC(=O)c1ccc(C2=NOC(c3cc(C(F)(F)F)cc(C(F)(F)F)c3)(C(F)(F)F)C2)c2ccccc12 (centres unmarked) [Compound 100]
very good to excellent: [1] | [2]; sprayed at 50 ppm | [3]

CCCNC(=O)CNC(=O)c1ccc(C2=NOC(c3cc(C(F)(F)F)cc(C(F)(F)F)c3)(C(F)(F)F)C2)c2ccccc12 (centres unmarked) [Compound 101]
very good to excellent: [1] | [2]; sprayed at 50 ppm | [3]

CC(C)CNC(=O)CNC(=O)c1ccc(C2=NOC(c3cc(C(F)(F)F)cc(C(F)(F)F)c3)(C(F)(F)F)C2)c2ccccc12 (centres unmarked) [Compound 102]
very good to excellent: [1] | [2]; sprayed at 50 ppm | [3]

CC(C)(C)CNC(=O)CNC(=O)c1ccc(C2=NOC(c3cc(C(F)(F)F)cc(C(F)(F)F)c3)(C(F)(F)F)C2)c2ccccc12 (centres unmarked) [Compound 103]
very good to excellent: [1] | [2]; sprayed at 50 ppm | [3]

CNC(=O)CNC(=O)c1ccc(C2=NOC(c3cc(C(F)(F)F)cc(C(F)(F)F)c3)(C(F)(F)F)C2)c2ccccc12 (centres unmarked) [Compound 105]
very good to excellent: [1] | [2]; sprayed at 50 ppm | [3]

CCCNC(=O)CNC(=O)c1ccc(C2=NOC(c3cc(Cl)cc(C(F)(F)F)c3)(C(F)(F)F)C2)c2ccccc12 (centres unmarked) [Compound 117]
very good to excellent: [1] | [2]; sprayed at 50 ppm | [2]; sprayed at 250 ppm | [3]

CC(C)CNC(=O)CNC(=O)c1ccc(C2=NOC(c3cc(Cl)cc(C(F)(F)F)c3)(C(F)(F)F)C2)c2ccccc12 (centres unmarked) [Compound 118]
very good to excellent: [1] | [2]; sprayed at 250 ppm | [3]
